Assay results: patent US4946849A, “Method for the treatment of malaria” (Flow Incorporated, priority 1989, dated 1990)
Where a name gives a salt, the structure may show the parent alone.

Experiments:
[1] = tested on: Rat Colon Tumor; settings: rats, subcutaneous, intraperitoneal, or implant-osmotic pump, cited from earlier work
[2] = tested on: P. falciparum ATCC 50005 (chloroquine resistant); assay: Growth inhibition of chloroquine-resistant P. falciparum in culture (96-well plates, microscopy and flow cytometry); assay type: cell-based; settings: chloroquine-resistant strain
Method: Numerous experiments were conducted regarding dequalinium compounds and their ability to control the growth of chloroquine-resistant and sensitive strains of P. falciparum malaria parasites. Specifically, two commonly-known strains of P. falciparum were obtained from the American Type Culture Collection (ATCC), namely, ATCC 50005 (chloroquine resistant) and ATCC 50028 (chloroquine sensitive). The methods of culture and culture materials used in the experiments described herein are known in the art and discussed in Trager W. and Jensen, J., "Human Malaria Parasites in Continuous Culture" Science, […] (1976).
Assays for growth inhibition of P. falciparium were performed using the above parasites in standard 96-well test plates. All assays were performed in duplicate. The tests involved the use of a dequalinium chloride salt solution (from the Sigma Company of St. Louis, Mo.--product no. D3768) at concentration levels of 32, 16, 8, 4, 2, 1, and 0 nanograms/ml.
The parasites were permitted to incubate in the test media for 72 hours. At 24 hour intervals, new media and test substances were added, and an aliquot of the incubation mixture was removed for microscopic examination,In addition, the parasites were examined by flow cytometry using the techniques discussed in Makler, M. T., et al., "Thiazone Orange: A New Dye for Plasmodium Species Analysis" Cytometry, 8:568-570 (1987).
The entire experiment was terminated after three days. The data in FIG. 1 clearly illustrates the effectiveness of dequalinium salts against chloroquine-resistant parasites. The "Y" axis in FIG. 1 involves the percentage of erythrocytes in the test media which were infected with viable parasites. The "X" axis involves the concentration of dequalinium chloride used (in nanograms/ml.) At 0 nanograms/ml, parasite growth was extensive, with a % parasite infection of about 17 % after 72 hours.

[3] = s.c., mice; cited from earlier work

For `Cc1cc(N)c2ccccc2[n+]1CCCCCCCCCC[n+]1c(C)cc(N)c2ccccc21` [dequalinium chloride, 1,1'-(1,10-Decanediyl)bis-[4-amino-2-methylquinolinium] salt], the tumor growth inhibition ([1]; 1.0 mg/kg) is given as “significant tumor growth inhibition”, the survival ([1]; sublethal dose 1.0 mg/kg) is given as “all survived” and the minimal effective concentration ([2]; Plasmodium falciparum, ATCC50005, read-out: concentration level at and above which parasite growth was strongly inhibited and no viable parasites remained, after 72 hours) is given as at least 0.001 µg/mL. The parasite growth ([2]; 1.0 nanogram/ml and above) was “strongly inhibited”, the viable parasites remaining ([2]; 1.0 nanogram/ml and above, after 72 hours) was “no viable parasites remained” and the LD50 [3] was 70 mg/kg.
